In patent publication US8049013B2, “5- [4-(azetidin-3-yloxy)-phenyl]-2-phenyl-5H-thiazolo[5,4-C] pyridin-4-one derivatives and their use as MCH receptor antagonists” (Eli Lilly and Company, priority 2006, dated 2011):
pKi: −log10 of the molar value. Where a name gives a salt, the structure may show the parent alone. Values belong to the compound of their own block, whether it stands above or below them.

Columns and labels:
[1] = In vivo efficacy in diet-induced obese male Long-Evans rats, oral gavage once a day for 3 days; conditions: 10 mg/Kg oral
Description: Animals are housed individually in a temperature regulated room (24° C.) with a reverse 12 hour light/dark cycle (dark 10:00/22:00). Water and food (Teklad 95217, Harlan, Wis.) were available ad libitum. Compounds are administered orally in a vehicle that consists of 10% acacia and 0.15% saccharin in water once a day before onset of the dark period for 3 days. Food intake and body weight are measured daily for the 3 day period. The compound of Example 29 produces an average body weight reduction of about 7 grams at a dose of 10 mg/Kg when compared to vehicle control.

[2] = biological target: T1, human MCHR1 (Homo sapiens, UniProt Q99705); assay: Functional GTPγ35S binding assay: inhibition of MCH-stimulated GTPγ35S binding to membranes of AV-12 cells expressing human MCHR1; format: biochemical; conditions: Kb from IC50 by modified Cheng-Prusoff (Leff and Dougal)
T1 construct: expressed in transfected cells; host or cells: AV-12 cells (clone 43), membranes
T1 sequence (Q99705 whole entry): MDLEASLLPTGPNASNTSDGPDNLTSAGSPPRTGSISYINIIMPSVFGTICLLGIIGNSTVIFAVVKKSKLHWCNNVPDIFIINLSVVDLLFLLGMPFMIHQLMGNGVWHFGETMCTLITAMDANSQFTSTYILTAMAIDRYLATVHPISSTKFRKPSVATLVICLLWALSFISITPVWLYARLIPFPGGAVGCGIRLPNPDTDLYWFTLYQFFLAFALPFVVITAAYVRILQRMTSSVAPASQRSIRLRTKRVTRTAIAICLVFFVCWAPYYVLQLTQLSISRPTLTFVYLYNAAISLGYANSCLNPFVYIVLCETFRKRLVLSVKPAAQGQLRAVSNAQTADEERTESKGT
Source text: (§1) One of skill in the art is able to perform both the ^125I-MCH binding and functional GTPγ^35S binding assays using the procedures herein or procedures disclosed in the art. For binding assay, see for example, Macdonald, D., et al., 2000. Molecular characterization of the melanin-concentrating hormone/receptor complex: identification of critical residues involved in binding and activation. Mol Pharmacol 58, 217-225. For GTPgammaS functional assay, see for example, Gao, X., et al., 2004. Europium-labeled melanin-concentrating hormone analogues: ligands for measuring binding to melanin-concentrating hormone receptors 1 and 2. Anal Biochem 328, 187-195.
Functional antagonism of MCH activity is assessed by measuring the ability of a test compound to inhibit MCH-stimulated binding of GTPγ^35S to membranes isolated from AV-12 cells expressing the human MCHR1 using a scintillation proximity assay. […] After verifying competitive antagonism by Schild analysis, Kb values are calculated from the IC50 values for each antagonist and the EC50 for MCH (determined independently) using a modification of the Cheng-Prusoff approximation as described by Leff and Dougal (Trends Pharmacol. Sci. (1993) 14: 110-112). […]

[3] = biological target: T1, human MCHR1; assay: 125I-MCH competitive binding assay (scintillation proximity), membranes of AV-12 cells transfected with human MCHR1; conditions: Ki calculated from IC50 by Cheng-Prusoff, average
Source text: as §1
Binding of compounds to MCHR1 is assessed in a competitive binding assay employing ^125I-MCH, compound of the invention, and clone 43 membranes using scintillation proximity techniques. IC50 values (defined as the concentration of test compound required to reduce specific binding of ^125I-MCH by 50%) are determined by fitting the concentration-response data to a 4-parameter model (max response, min response, Hill coefficient, IC50) using a spreadsheet.

Structure (SMILES): COc1cc(N2CCc3nc(-c4ccc(Cl)cc4)sc3C2=O)ccc1OC1CN(C2CCC2)C1.Cl [Example 29, 2-(4-Chloro-phenyl)-5-[4-(l-cyclobutyl-azetidin-3-yloxy)-3-methoxy-phenyl]-6,7-dihydro-5H-thiazolo[5,4-c]pyridin-4-one, hydrochloride salt]
average body weight reduction when compared to vehicle control [1]: about 7 grams

Kb [2]: ~6 nM
Structure (SMILES): COc1cc(N2CCc3nc(-c4ccc(Cl)cc4)sc3C2=O)ccc1OC1CN(C(C)C)C1 [Example 28, 2-(4-Chloro-phenyl)-5-[4-(1-isopropyl-azetidin-3-yloxy)-3-methoxy-phenyl]-6,7-dihydro-5H-thiazolo[5,4-c]pyridin-4-one, hydrochloride salt]

pKi [3]: ~8.40
Structure (SMILES): COc1cc(N2CCc3nc(-c4ccc(Cl)cc4)sc3C2=O)ccc1OC1CN(C2CC2)C1 [Example 37, 2-(4-Chloro-phenyl)-5-[4-(1-cyclopropyl-azetidin-3-yloxy)-3-methoxy-phenyl]-6,7-dihydro-5H-thiazolo[5,4-c]pyridin-4-one, hydrochloride salt]
